{"source": "patent US8900819B2", "about": "“ADRB2 cancer markers” (The Regents of The University of Michigan, priority 2007, dated 2014)", "key": {"[1]": {"system": "ADRB2 transcript", "experiment": "qRT-PCR of ADRB2 transcript after DZNep in breast and prostate cancer cell lines", "format": "cell-based", "settings": "5 μM, 48 hrs; batch of breast and prostate cancer cell lines; FIG. 3K", "procedure": "(§1) The ADRB2 antagonist ICI 118,551, and agonist Isoproterenol was purchased from Sigma-Aldrich, and used at a working concentration of 1 μM, 10 μM or 100 μM. SAHA was obtained from Biovision Inc, dissolved in DMSO, and used at a working concentration of 1 μM. DZNep was used at 5 μM and cells were treated for 48 hrs before being harvested for RNA isolation.\n(§2) SYBR green qRT-PCR was carried out according to standard protocols in triplicates (Kleer et al., 2003, supra). Samples were normalized to the mRNA level of the house-keeping gene GAPDH or RPL13A."}, "[2]": {"system": "RWPE cells", "experiment": "Modified basement membrane invasion assay in RWPE cells", "format": "cell-based", "settings": "noninvasive RWPE cells treated with 0, 1, or 10 μM; FIG. 4C", "procedure": "as §1\n(§3) Basement membrane matrix invasion assay was essentially performed as previously described (Kleer et al., 2003, supra). Briefly, warm serum free medium was mixed with Matrigel (Fisher Scientific) at 1:3 ratio, 300 μl of this Matrigel mixture was added into the center of each cell well inserts of the Chemicon 24-well plate (Chemicon), and allowed to solidify at room temperature for 1-2 hrs. Cells were trypsinized and resuspended in serum-free medium. Approximately 1×10^5 cells in 300 μl of serum free medium were placed into each insert, the upper chamber, whereas 500 μl of full medium was added to the lower chamber. Cells were treated with corresponding drug for 10 min prior to be placed into invasion chambers. Cells were then grown in the upper chamber for 48 hrs. The non-invading cells inside the insert were removed and the insert were stained for invaded cells on the lower surface of the membrane. The stained cells were then counted using a microscope and images taken."}, "[3]": {"system": "RWPE benign prostate epithelial cells", "experiment": "Immunoblot of EMT biomarkers and cell adhesion molecules in RWPE cells", "format": "cell-based", "settings": "FIG. 4F", "procedure": "as §1\nCell extracts were separated by SDS-PAGE and blotted onto nitrocelllular membranes, immunoblotted with antibodies and visualized using ECL-plus (Amercham Bioscience). The following antibodies were used: ADRB2 (Abcam), β-tubulin (Santa Cruz), EZH2 (BD Bioscience). The anti-ADRB2 antibody usually gives a major band of predicted size (46.5 kDa). However, some lots of this antibody may give an extra, weaker band about 5 kDa above the predicted band."}, "[4]": {"system": "DU145 prostate cancer cells", "experiment": "Modified basement membrane invasion assay in DU145 cells", "format": "cell-based", "procedure": "as §3, with “The ADRB2 antagonist ICI 118,551, and agonist Isoproterenol was purchased from Sigma-Aldrich, and used at a working concentration of 1 μM, 10 μM or 100 μM. SAHA was obtained from Biovision Inc, dissolved in DMSO, and used at a working concentration of 1 μM. DZNep was used at 5 μM and cells were treated for 48 hrs before being harvested for RNA isolation. Basement” for “Basement”"}, "[5]": {"system": "RWPE-shADRB2 cells", "experiment": "Modified basement membrane invasion assay in RWPE-shADRB2 cells", "format": "cell-based", "settings": "RWPE-shADRB2 cells treated with 0, 10, or 100 μM", "procedure": "The ADRB2 antagonist ICI 118,551, and agonist Isoproterenol was purchased from Sigma-Aldrich, and used at a working concentration of 1 μM, 10 μM or 100 μM. SAHA was obtained from Biovision Inc, dissolved in DMSO, and used at a working concentration of 1 μM. DZNep was used at 5 μM and cells were treated for 48 hrs before being harvested for RNA isolation. EZH2 adenovirus infection and RNA interference were performed as described (Kleer et al., Proc Natl Acad Sci USA 100, 11606-11611 2003; Varambally et al., Cancer Cell 8, 393-406 2002). RWPE cells with stable ADRB2 knockdown were generated by transfection with ADRB2 shRNA constructs (Open Biosystems, Huntsville, Ala.) and selection with puromycin. DU145 cell lines with stable EZH2 knockdown were generated using EZH2 shRNA expressing constructs (Open Biosystems). Basement membrane matrix invasion assay was essentially performed as previously described (Kleer et al., 2003, supra). Briefly, warm serum free medium was mixed with Matrigel (Fisher Scientific) at 1:3 ratio, 300 μl of this Matrigel mixture was added into the center of each cell well inserts of the Chemicon 24-well plate (Chemicon), and allowed to solidify at room temperature for 1-2 hrs. Cells were trypsinized and resuspended in serum-free medium. […] The stained cells were then counted using a microscope and images taken."}, "[6]": {"system": "DU145 prostate cancer cells", "experiment": "Murine prostate tumor xenograft model (DU145)", "format": "in vivo", "settings": "nude mice, daily intraperitoneal injection 400 μg/day or 800 ug/day vs PBS; FIG. 5B", "procedure": "All procedures involving mice were approved by the University Committee on Use and Care of Animals of the University of Michigan. Male nude athymic BALB/c nu/nu mice 5-week-old (Charles River Laboratory, Wilmington, Mass.) were used for examining the tumorigenicity. […] To evaluate the role of β-adrenergic signaling in tumor formation, DU145 cell was propagated, and treated with PBS or 10 μM Isoproterenol at 24 hrs prior to harvest. Cells were then harvested and suspended in a 0.1 ml PBS with or without treatment of 10 μM Isoproterenol. A total of 15 mice (n=5 per group) were each implanted with 5×10^6 DU145 cells into the dorsal flank subcutaneously. Treatment started 24 hrs after implantation. Each group was administered daily by intraperitoneal injection with either PBS or Isoproterenol (at 400 μg/day or 800 μg/day). Tumor size was measured every week and tumor volumes were estimated using the formula (n/6)(L×W2), where L=length of tumor and W=width."}, "[7]": {"system": "ADRB2 transcript", "experiment": "qRT-PCR of ADRB2 transcript after SAHA time course", "format": "cell-based", "settings": "time course of SAHA treatment; FIG. 3J", "procedure": "For ChIP and qRT-PCR analysis, DU145 cells were treated with 0.5 μM of SAHA for 30 min, 2, 6, 12 and 24 hrs prior to harvest.\nas §2"}, "[8]": {"system": "ADRB2 promoter", "experiment": "ChIP of endogenous PRC2 complex, 3mH3K27 and acetylated H3 at the ADRB2 promoter", "format": "cell-based", "settings": "FIG. 3H-I", "procedure": "ChIP was performed according to published protocols with slight modifications (Boyd et al., Proc Natl Acad Sci USA 95, 13887-13892 1998). Briefly, formaldehyde was added directly to the cultured cells to a final concentration of 1%. For metastasis tissues, samples were first chopped into small pieces with a razor blade and transferred into 5-10 ml PBS before adding formaldehyde. Cells were rotated at room temperature for 10 min. The crosslinking was stopped by 1/20V of 2.5M Glycine and the cells were washed with 1×PBS and harvested in 1×PBS with proteinase inhibitors. Metastasis tissue samples were further disaggregated using a tissue homogenizer. The cells were then pelleted and resuspended in cell lysis buffer containing protease inhibitors. After incubation in cell lysis buffer for 10 min, the samples were pelleted, resuspended in nuclei lysis buffer and sonicated to chromatins with an average size of 500 bp. The chromatins were precleared using Salmon sperm DNA/Protein A Agarose-50% flurry and incubated with specific antibodies overnight. […] The next day, the antibody-bound chromatin was pooled down using protein A/agarose, washed extensively, and reverse-crosslinked. Immunoprecipitated DNA and whole cell extract DNA were purified by treatment with RNase A, proteinase K and purified using Qiaquick PCR purification kit (Qiagen, Valencia, Calif.). The purified DNA was used for PCR analysis of enrichment. Purified DNA was blunted and ligated to linkers and amplified by a two-stage ligation-mediated PCR (LM-PCR) protocol (Lee et al., Cell 125, 301-313 2006) to generate enough chromatins for PCR analysis of multiple target genes or for hybridization to promoter arrays. Equal amount of amplified input and ChIP-enriched chromatins were subjected to PCR testing for enrichment of target gene promoters. For ChIP and qRT-PCR analysis, DU145 cells were treated with 0.5 μM of SAHA for 30 min, 2, 6, 12 and 24 hrs prior to harvest."}, "[9]": {"system": "ADRB2 promoter", "experiment": "ChIP of ectopic Myc-EZH2 at the ADRB2 promoter in H16N2 cells", "format": "cell-based, human", "settings": "H16N2 cells with EZH2 adenovirus; FIG. 3F", "procedure": "ChIP was performed according to published protocols with slight modifications (Boyd et al., Proc Natl Acad Sci USA 95, 13887-13892 1998). Briefly, formaldehyde was added directly to the cultured cells to a final concentration of 1%. For metastasis tissues, samples were first chopped into small pieces with a razor blade and transferred into 5-10 ml PBS before adding formaldehyde. Cells were rotated at room temperature for 10 min. The crosslinking was stopped by 1/20V of 2.5M Glycine and the cells were washed with 1×PBS and harvested in 1×PBS with proteinase inhibitors. Metastasis tissue samples were further disaggregated using a tissue homogenizer. The cells were then pelleted and resuspended in cell lysis buffer containing protease inhibitors. After incubation in cell lysis buffer for 10 min, the samples were pelleted, resuspended in nuclei lysis buffer and sonicated to chromatins with an average size of 500 bp. The chromatins were precleared using Salmon sperm DNA/Protein A Agarose-50% flurry and incubated with specific antibodies overnight. Antibodies used in this study include EZH2 (BD Bioscience), EED (Upstate), SUZ12 (Abeam), trimethylated H3K27 (Upstate), Acetyl-H3K27 (Upstate), Myc (Abeam), and IgG control (Santa Cruz). The next day, the antibody-bound chromatin was pooled down using protein A/agarose, washed extensively, and reverse-crosslinked. […]"}}, "note": "Entries after “also recorded” stand apart in the source; their conditions may differ."}
{"smiles": "Nc1nccc2c1ncn2C1C=C(CO)C(O)C1O", "note": "(centres unmarked) [DZNep]", "values": [{"measurement": "ADRB2 transcript", "setting": "[1]", "value": "Marked up-regulation; also recorded: strong induction (de-repression) of ADRB2 in all cell lines tested"}]}
{"smiles": "Cc1ccc(OCC(O)C(C)NC(C)C)c2c1CCC2", "note": "(centres unmarked) [ICI 118,551]", "values": [{"measurement": "cell invasion", "setting": "[2]", "value": "leads to increased invasion; also recorded: significantly increased invasion"}, {"measurement": "expression of EMT biomarkers and cell adhesion molecules", "setting": "[3]", "value": "regulates the expression of EMT biomarkers and cell adhesion molecules; also recorded: recaptured the expressional changes in RWPE-shADRB2 cells"}]}
{"smiles": "CC(C)NCC(O)c1ccc(O)c(O)c1", "note": "(centres unmarked) [Isoproterenol]", "values": [{"measurement": "cell invasion", "setting": "[4]; DU145 cells treated with 0, 10, or 100 μM", "value": "inhibits cell invasion"}, {"measurement": "cell invasion", "setting": "[4]; DU145 cells treated with 0, 10, or 100 μM, listed as isoproterenol", "value": "significantly reduced invasion"}, {"measurement": "cell invasion", "setting": "[4]; PCA model system, cell line not given", "value": "decreased cell invasion"}, {"measurement": "cell invasion", "setting": "[5]", "value": "inhibits cell invasion"}, {"measurement": "cell invasion", "setting": "[5]; listed as isoproterenol", "value": "significantly reduced invasion"}, {"measurement": "xenograft tumor size", "setting": "[6]", "value": "significantly (two-sample t-test, p=0.006) smaller tumors"}]}
{"smiles": "O=C(CCCCCCC(=O)Nc1ccccc1)NO", "note": "[SAHA]", "values": [{"measurement": "ADRB2 transcript", "setting": "[7]", "value": "up-regulated; also recorded: upregulation of ADRB2 transcripts"}, {"measurement": "H3K27 trimethylation at the ADRB2 promoter", "setting": "[8]", "value": "marked reduction of PRC2 binding and consequent H3K27 trimethylation"}, {"measurement": "acetylated H3 at the ADRB2 promoter", "setting": "[8]", "value": "accumulation of acetylated H3"}, {"measurement": "PRC2 binding at the ADRB2 promoter", "setting": "[8]; endogenous PRC2", "value": "sensitive to the HDAC inhibitor SAHA; also recorded: marked reduction of PRC2 binding"}, {"measurement": "recruitment of Myc-EZH2 to the ADRB2 promoter", "setting": "[9]", "value": "this binding being sensitive to SAHA"}]}
